Among the data in patent US8633182B2, “Indanyloxyphenylcyclopropanecarboxylic acids” (Boehringer Ingelheim International GmbH, priority 2012, dated 2014) are EC50 values, retold here.

This experiment deals with human GPR40 receptor (Homo sapiens, UniProt O14842). The experiment is described as follows: IP1 accumulation measurements using the IPOne assay system in 1321N1 cells stably expressing human GPR40 receptor. As to conditions: IP1 accumulation (HTRF), 1321N1 cells stably expressing human GPR40, 1 hour stimulation at 37° C. The format is cell-based. The procedure: IP1 accumulation measurements using the IPOne assay system—1321N1 cells stably expressing human GPR40 receptor (Euroscreen, Belgium) are seeded 24 h before the assay in black clear-bottom collagen-coated or white 384-well plates in culture medium containing 10% FCS, 1% Na-Pyruvate and 400 μg/mL G418. IP1 is assayed according to the Manufacturer's description (Cisbio Bioassays, France). In brief, the assay is started by substitution of the culture medium by stimulation buffer (Hepes 10 mM, CaCl2 1 mM, MgCl2 0.5 mM, KCl 4.2 mM, NaCl 146 mM and glucose 5.5 mM, pH 7.4) without LiCl or with […]. Cells are stimulated for 1 hour at 37° C., 5 or 10% CO2 by addition of the compounds that are diluted in stimulation buffer containing LiCl yielding a final LiCl concentration of 50 mM. Assays are stopped by adding HTRF-conjugates (IP1-d2 and Anti-IP1 cryptate Tb) and lysis buffer, provided by the manufacturer. After an incubation time of 1 hour at room temperature plates are measured using an EnVision™, Perkin Elmer. The obtained fluorescence ratios at […] are then used to calculate the pEC50 values using GraphPad Prism 5 (Graphpad Software Inc, USA) or Assay Explorer 3.3 Software (Accelrys, Inc.) by interpolation using an IP1 reference curve and subsequent sigmoidal curve fitting allowing for a variable hill slope.
Chain of human GPR40 receptor (O14842 whole entry): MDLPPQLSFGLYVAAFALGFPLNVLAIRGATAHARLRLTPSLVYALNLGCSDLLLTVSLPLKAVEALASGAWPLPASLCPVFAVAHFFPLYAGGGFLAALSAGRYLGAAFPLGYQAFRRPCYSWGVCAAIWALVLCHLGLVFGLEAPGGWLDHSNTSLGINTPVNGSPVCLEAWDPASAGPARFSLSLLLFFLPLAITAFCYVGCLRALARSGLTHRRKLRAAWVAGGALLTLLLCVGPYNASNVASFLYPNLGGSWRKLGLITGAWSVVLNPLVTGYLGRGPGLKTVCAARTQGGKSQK

`Cc1cc(OCC2CCS(=O)(=O)CC2)cc(C)c1-c1c(C#N)ccc2c1CC[C@H]2Oc1ccc([C@H]2C[C@@H]2C(=O)O)cc1` [Example 35] gave an EC50 of 28 nM. The value for `Cc1cc(O[C@@H]2CCN(S(C)(=O)=O)C2)cc(C)c1-c1c(C#N)ccc2c1CC[C@H]2Oc1ccc([C@H]2C[C@@H]2C(=O)O)cc1` [Example 37] was 32 nM; that for `Cc1cc(OC2CCOCC2)cc(C)c1-c1c(C#N)ccc2c1CC[C@H]2Oc1ccc([C@H]2C[C@@H]2C(=O)O)cc1` [Example 38, (1S,2S)-2-(4-{(R)-5-Cyano-4-[2,6-dimethyl-4-(tetrahydro-pyran-4-yloxy)-phenyl]-indan-1-yloxy}-phenyl)-cyclopropane-carboxylic acid] was 40 nM. The value for `Cc1cc(OCC2(O)CCS(=O)(=O)CC2)cc(C)c1-c1ccc(F)c2c1CC[C@H]2Oc1ccc([C@H]2C[C@@H]2C(=O)O)cc1` [Example 39] was 6 nM. On to `Cn1ncc2cccc(-c3ccc(F)c4c3CC[C@H]4Oc3ccc([C@H]4C[C@@H]4C(=O)O)cc3)c21` [Example 40], for which the midpoint of the response, the EC50, lay at 2 nM. With `Cc1cc(-c2nc(C)n(CC(C)(C)O)n2)cc(C)c1-c1ccc(F)c2c1CC[C@H]2Oc1ccc([C@H]2C[C@@H]2C(=O)O)cc1` [Example 41, (1S,2S)-2-[4-((R)-7-Fluoro-4-{4-[1-(2-hydroxy-2-methyl-propyl)-5-methyl-1H-[1,2,4]triazol-3-yl]-2,6-dimethyl-phenyl}-indan-1-yloxy)-phenyl]-cyclopropanecarboxylic acid], the EC50 was 2 nM. The value for `Cc1cc(-c2nc(C)n(C)n2)cc(C)c1-c1ccc(F)c2c1CC[C@H]2Oc1ccc([C@H]2C[C@@H]2C(=O)O)cc1` [Example 42, (1S,2S)-2-(4-{(R)-4-[4-(1,5-Dimethyl-1H-[1,2,4]triazol-3-yl)-2,6-dimethyl-phenyl]-7-fluoro-indan-1-yloxy}-phenyl)-cyclopropanecarboxylic acid] was 1 nM.

In turn, `Cc1cc(-c2nnn(CC(C)(C)O)n2)cc(C)c1-c1ccc(F)c2c1CC[C@H]2Oc1ccc([C@H]2C[C@@H]2C(=O)O)cc1` [Example 43, (1S,2S)-2-[4-((R)-7-Fluoro-4-{4-[2-(2-hydroxy-2-methyl-propyl)-2H-tetrazol-5-yl]-2,6-dimethyl-phenyl}-indan-1-yloxy)-phenyl]-cyclopropanecarboxylic acid] yielded an EC50 of 3 nM.

In turn, `Cc1cc(-c2nnnn2C)cc(C)c1-c1ccc(F)c2c1CC[C@H]2Oc1ccc([C@H]2C[C@@H]2C(=O)O)cc1` [Example 44] returned an EC50 of 12 nM.

`Cc1cc(-c2nnn(C)n2)cc(C)c1-c1ccc(F)c2c1CC[C@H]2Oc1ccc([C@H]2C[C@@H]2C(=O)O)cc1` [Example 45] displayed an EC50 of 2 nM.

Take `O=C(O)[C@H]1C[C@@H]1c1ccc(O[C@@H]2CCc3c(-c4cncc5ccccc45)ccc(F)c32)cc1` [Example 46, (1S,2S)-2-(4-((1R)-7-fluoro-4-(isoquinolin-4-yl)-2,3-dihydro-1H-inden-1-yloxy)phenyl)cyclo-propanecarboxylic acid]: a half-maximal effect (EC50) was put at 6 nM. The value for `N#Cc1sccc1-c1ccc(F)c2c1CC[C@H]2Oc1ccc([C@H]2C[C@@H]2C(=O)O)cc1` [Example 47] was 191 nM; that for `O=C(O)[C@H]1C[C@@H]1c1ccc(O[C@@H]2CCc3c(-c4cccc5ncccc45)ccc(F)c32)cc1` [Example 48, (1S,2S)-2-(4-((1R)-7-fluoro-4-(quinolin-5-yl)-2,3-dihydro-1H-inden-1-yloxy)phenyl)cyclo-propanecarboxylic acid] was 6 nM. The value for `O=C(O)[C@H]1C[C@@H]1c1ccc(O[C@@H]2CCc3c(-c4cccc5cnccc45)ccc(F)c32)cc1` [Example 49, (1S,2S)-2-(4-((1R)-7-fluoro-4-(isoquinolin-5-yl)-2,3-dihydro-1H-inden-1-yloxy)phenyl)cyclo-propanecarboxylic acid] was 5 nM.

With `O=C(O)[C@H]1C[C@@H]1c1ccc(O[C@@H]2CCc3c(-c4ccnc5ccccc45)ccc(F)c32)cc1` [Example 50], the EC50 is 11 nM. Compound `COc1cccnc1-c1ccc(F)c2c1CC[C@H]2Oc1ccc([C@H]2C[C@@H]2C(=O)O)cc1` [Example 51] returned a 50% effective concentration (EC50) of 569 nM. The value for `O=C(O)[C@H]1C[C@@H]1c1ccc(O[C@@H]2CCc3c(-c4ccncc4C(F)(F)F)ccc(F)c32)cc1` [Example 52, (1S,2S)-2-(4-((1R)-7-fluoro-4-(3-(trifluoromethyl)pyridin-4-yl)-2,3-dihydro-1H-inden-1-yloxy)phenyl)cyclopropanecarb oxylic acid] was 38 nM; that for `Cn1ccc2c(-c3ccc(F)c4c3CC[C@H]4Oc3ccc([C@H]4C[C@@H]4C(=O)O)cc3)cccc21` [Example 53] was 13 nM. The value for `Cc1c(C#N)cccc1-c1ccc(F)c2c1CC[C@H]2Oc1ccc([C@H]2C[C@@H]2C(=O)O)cc1` [Example 54] was 5 nM. The value for `N#Cc1ncccc1-c1ccc(F)c2c1CC[C@H]2Oc1ccc([C@H]2C[C@@H]2C(=O)O)cc1` [Example 55] was 75 nM; that for `Cc1nn(C)cc1-c1ccc(F)c2c1CC[C@H]2Oc1ccc([C@H]2C[C@@H]2C(=O)O)cc1` [Example 56, (1S,2S)-2-(4-((1R)-4-(1,3-dimethyl-1H-pyrazol-4-yl)-7-fluoro-2,3-dihydro-1H-inden-1-yloxy)phenyl)cyclopropanecarb oxylic acid] was 224 nM; that for `Cc1ncc(-c2ccc(F)c3c2CC[C@H]3Oc2ccc([C@H]3C[C@@H]3C(=O)O)cc2)n1C` [Example 57, (1S,2S)-2-(4-((1R)-4-(1,2-dimethyl-1H-imidazol-5-yl)-7-fluoro-2,3-dihydro-1H-inden-1-yloxy)phenyl)cyclopropanecarb oxylic acid] was 1400 nM. `Cc1ccc2c(cnn2C)c1-c1ccc(F)c2c1CC[C@H]2Oc1ccc([C@H]2C[C@@H]2C(=O)O)cc1` [Example 58, (1S,2S)-2-(4-((1R)-4-(1,5-dimethyl-1H-indazol-4-yl)-7-fluoro-2,3-dihydro-1H-inden-1-yloxy)phenyl)cyclopropanecarb oxylic acid] displayed an EC50 of 4 nM. On to `Cn1ncc2c(-c3ccc(F)c4c3CC[C@H]4Oc3ccc([C@H]4C[C@@H]4C(=O)O)cc3)cccc21` [Example 59], for which the EC50 was determined as 17 nM. The value for `Cn1ccc2cccc(-c3ccc(F)c4c3CC[C@H]4Oc3ccc([C@H]4C[C@@H]4C(=O)O)cc3)c21` [Example 60] was 3 nM; that for `O=C(O)[C@H]1C[C@@H]1c1ccc(O[C@@H]2CCc3c(-c4ccccc4-c4cocn4)ccc(F)c32)cc1` [Example 61, (1S,2S)-2-(4-((1R)-7-fluoro-4-(2-(oxazol-4-yl)phenyl)-2,3-dihydro-1H-inden-1-yloxy)-phenyl)cyclopropanecarboxylic acid] was 28 nM. Compound `O=C(O)[C@H]1C[C@@H]1c1ccc(O[C@@H]2CCc3c(-c4ccccc4-c4cnco4)ccc(F)c32)cc1` [Example 62] displayed an EC50 of 29 nM. With `O=C(O)C1CC1c1ccc(OC2CCc3c2ccc(C(F)(F)F)c3-c2ccc(OCC3(O)CCOCC3)cc2)cc1` (centres unmarked) [Example 63], the midpoint of the response, the EC50, lay at 7 nM. In turn, `Cc1nc(-c2ccc(-c3c(C(F)(F)F)ccc4c3CC[C@H]4Oc3ccc([C@H]4C[C@@H]4C(=O)O)cc3)cc2)no1` [Example 64, (1S,2S)-2-(4-{(R)-4-[4-(5-Methyl-[1,2,4}oxadiazol-3-yl)-phenyl]-5-trifluoromethyl-indan-1-yloxy}-phenyl)-cyclopropanecarboxylic acid] registered an EC50 of 3 nM.
